The text below walks through data of US20230102554A1 (GB002, INC., priority 2019, published 2023).

The target in test [1] is T1, Human PDGFRα, cytoplasmic domain (GST-PDGFRα) (Homo sapiens, UniProt P16234).
T1 construct: made in house
As to the kind of experiment: Human PDGFRα biochemical inhibition assay (off-chip Mobility Shift Assay).

For test [2], the target named is T2, Human PDGFRβ, cytoplasmic domain (GST-PDGFRβ) (Homo sapiens, UniProt P09619).
T2 construct: made in house
As to the kind of experiment: Human PDGFRβ biochemical inhibition assay (off-chip Mobility Shift Assay). Summed up:
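GST-tagged cytoplasmic domain (aa 557-1106) from baculovirus was incubated 1 h at room temperature with compound, CSKtide, ATP at Km and Mg²⁺ in HEPES buffer, pH 7.5. Phosphorylated and unphosphorylated peptide were separated by off-chip mobility shift, and the product ratio P/(P+S) gave percent inhibition.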

T1 sequence (P16234 550-1089 T674I): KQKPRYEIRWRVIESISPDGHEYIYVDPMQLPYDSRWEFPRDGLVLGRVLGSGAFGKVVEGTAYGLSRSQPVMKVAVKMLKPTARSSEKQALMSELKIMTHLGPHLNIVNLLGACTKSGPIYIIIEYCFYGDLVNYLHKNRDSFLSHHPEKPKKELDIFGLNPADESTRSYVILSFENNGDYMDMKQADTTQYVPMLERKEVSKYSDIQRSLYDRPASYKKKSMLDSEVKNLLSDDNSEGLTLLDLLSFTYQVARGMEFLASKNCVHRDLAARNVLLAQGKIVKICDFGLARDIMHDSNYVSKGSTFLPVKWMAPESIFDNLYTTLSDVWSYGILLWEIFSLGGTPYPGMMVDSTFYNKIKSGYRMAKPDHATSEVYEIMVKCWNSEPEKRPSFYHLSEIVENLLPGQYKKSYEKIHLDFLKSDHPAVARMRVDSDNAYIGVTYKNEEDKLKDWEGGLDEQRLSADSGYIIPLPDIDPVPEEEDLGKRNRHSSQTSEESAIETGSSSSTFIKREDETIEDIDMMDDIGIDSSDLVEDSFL
T2 sequence (P09619 with tags, fused parts or gaps): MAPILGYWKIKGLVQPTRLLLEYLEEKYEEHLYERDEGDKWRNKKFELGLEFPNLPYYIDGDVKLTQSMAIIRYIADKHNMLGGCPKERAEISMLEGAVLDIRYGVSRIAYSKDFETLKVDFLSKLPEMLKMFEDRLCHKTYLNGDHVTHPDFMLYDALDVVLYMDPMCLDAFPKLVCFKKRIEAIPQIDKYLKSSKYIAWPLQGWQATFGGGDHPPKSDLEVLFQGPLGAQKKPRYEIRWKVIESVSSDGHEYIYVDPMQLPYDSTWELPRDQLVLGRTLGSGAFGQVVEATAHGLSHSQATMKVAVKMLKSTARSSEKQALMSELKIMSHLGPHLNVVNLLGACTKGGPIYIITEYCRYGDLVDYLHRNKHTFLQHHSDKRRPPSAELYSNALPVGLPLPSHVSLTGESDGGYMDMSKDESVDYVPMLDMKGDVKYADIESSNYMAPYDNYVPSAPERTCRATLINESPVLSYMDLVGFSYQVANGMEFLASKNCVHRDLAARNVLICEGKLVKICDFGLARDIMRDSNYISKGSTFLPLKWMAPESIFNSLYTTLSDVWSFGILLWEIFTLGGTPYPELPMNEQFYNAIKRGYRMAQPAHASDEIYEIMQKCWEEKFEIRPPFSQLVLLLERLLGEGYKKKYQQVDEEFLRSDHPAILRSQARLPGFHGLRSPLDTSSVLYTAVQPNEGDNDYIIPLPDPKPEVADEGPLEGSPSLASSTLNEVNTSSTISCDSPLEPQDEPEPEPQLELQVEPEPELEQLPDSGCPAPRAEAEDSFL

Broadly, the IC50 is the concentration needed to halve the response being measured. On to `CCn1cc2ncc(N[C@@H](C)c3cccc(NC(=O)c4cnn(C(C)C)c4)c3)nc2n1` [Compound 301, (S)-N-(3-(1-((2-ethyl-2H-pyrazolo[3,4-b]pyrazin-6-yl)amino)ethyl)phenyl)-1-isopropyl-1H-pyrazole-4-carboxamide], for which the IC50 in test [1] and in test [2] was below 300 nM in each case.

For `CCn1cc2ncc(N[C@@H](C)c3cc(NC(=O)c4ccc(C5CC5)nc4)ccc3F)nc2n1` [Compound 302, (S)-6-cyclopropyl-N-(3-(1-((2-ethyl-2H-pyrazolo[3,4-b]pyrazin-6-yl)amino)ethyl)-4-fluorophenyl)nicotinamide], the IC50 in test [1] and in test [2] was below 300 nM throughout.

Consider `CCn1cc2ncc(N[C@@H](C)c3cc(NC(=O)c4ccc(OC(F)(F)F)nc4)ccc3F)nc2n1` [Compound 303, (S)-N-(3-(1-((2-ethyl-2H-pyrazolo[3,4-b]pyrazin-6-yl)amino)ethyl)-4-fluorophenyl)-6-(trifluoromethoxy)nicotinamide], for which the IC50 in test [1] and in test [2] was below 300 nM each time.

`CCn1cc2ncc(N[C@@H](C)c3cc(NC(=O)c4ccc(OC(F)F)nc4)ccc3F)nc2n1` [Compound 304, (S)-6-(difluoromethoxy)-N-(3-(1-((2-ethyl-2H-pyrazolo[3,4-b]pyrazin-6-yl)amino)ethyl)-4-fluorophenyl)nicotinamide]: the 50% inhibitory concentration (IC50) in test [1] and in test [2] was below 300 nM in each case.

As to `CCn1cc2ncc(N[C@@H](C)c3cccc(NC(=O)c4ccn(C(C)C)n4)c3)nc2n1` [Compound 305, (S)-N-(3-(1-((2-ethyl-2H-pyrazolo[3,4-b]pyrazin-6-yl)amino)ethyl)phenyl)-1-isopropyl-1H-pyrazole-3-carboxamide], the values for the IC50 in test [1] and in test [2] were below 300 nM and 300 to 1000 nM, respectively.

Consider `CCn1cc2ncc(N[C@@H](C)c3cc(NC(=O)c4cnc(C#N)c(C)c4)ccc3F)nc2n1` [Compound 306, (S)-6-cyano-N-(3-(1-((2-ethyl-2H-pyrazolo[3,4-b]pyrazin-6-yl)amino)ethyl)-4-fluorophenyl)-5-methylnicotinamide], for which the IC50 in test [1] and in test [2] was below 300 nM throughout.

As for `CCn1cc2ncc(N[C@@H](C)c3cc(NC(=O)c4cnc(C)s4)ccc3F)nc2n1` [Compound 307, (S)-N-(3-(1-((2-ethyl-2H-pyrazolo[3,4-b]pyrazin-6-yl)amino)ethyl)-4-fluorophenyl)-2-methylthiazole-5-carboxamide], the half-maximal inhibitory concentration (IC50) in test [1] and in test [2] was below 300 nM each time.

Turning to `CCn1cc2ncc(N[C@@H](C)c3cc(NC(=O)c4cnc(C(F)(F)F)s4)ccc3F)nc2n1` [Compound 308, (S)-N-(3-(1-((2-ethyl-2H-pyrazolo[3,4-b]pyrazin-6-yl)amino)ethyl)-4-fluorophenyl)-2-(trifluoromethyl)thiazole-5-carboxamide], the IC50 in test [1] and in test [2] was below 300 nM throughout.

As for `CCn1cc2ncc(N[C@@H](C)c3cc(NC(=O)c4cnc(C5CC5)s4)ccc3F)nc2n1` [Compound 309, (S)-2-cyclopropyl-N-(3-(1-((2-ethyl-2H-pyrazolo[3,4-b]pyrazin-6-yl)amino)ethyl)-4-fluorophenyl)thiazole-5-carboxamide], the IC50 in test [1] and in test [2] was below 300 nM each time.

As for `CCn1cc(C(=O)Nc2ccc(F)c([C@H](C)Nc3cnc4cn(CC)nc4n3)c2)cn1` [Compound 310, (S)-1-ethyl-N-(3-(1-((2-ethyl-2H-pyrazolo[3,4-b]pyrazin-6-yl)amino)ethyl)-4-fluorophenyl)-1H-pyrazole-4-carboxamide], the IC50 in test [1] and in test [2] was below 300 nM each time.

For the compound `CCn1cc2ncc(N[C@@H](C)c3cc(NC(=O)c4cnn(CCF)c4)ccc3F)nc2n1` [Compound 311, (S)-N-(3-(1-((2-ethyl-2H-pyrazolo[3,4-b]pyrazin-6-yl)amino)ethyl)-4-fluorophenyl)-1-(2-fluoroethyl)-1H-pyrazole-4-carboxamide], the IC50 in test [1] and in test [2] was below 300 nM throughout.

For the compound `CCn1cc2ncc(N[C@@H](C)c3cc(NC(=O)c4cnn(C5CC5)c4)ccc3F)nc2n1` [Compound 312, (S)-1-cyclopropyl-N-(3-(1-((2-ethyl-2H-pyrazolo[3,4-b]pyrazin-6-yl)amino)ethyl)-4-fluorophenyl)-1H-pyrazole-4-carboxamide], the half-maximal inhibitory concentration (IC50) in test [1] and in test [2] was below 300 nM throughout.

Take `CCn1cc2ncc(N[C@@H](C)c3cc(NC(=O)c4cnn(C(C)C)c4)ccc3F)nc2n1` [Compound 313, (S)-N-(3-(1-((2-ethyl-2H-pyrazolo[3,4-b]pyrazin-6-yl)amino)ethyl)-4-fluorophenyl)-1-isopropyl-1H-pyrazole-4-carboxamide]: the IC50 in test [1] and in test [2] was below 300 nM each time.

For the compound `CCOc1ncc(C(=O)Nc2cccc([C@H](C)Nc3cnc4cn(CC)nc4n3)c2)cc1C` [Compound 314, (S)-6-ethoxyN-(3-(1-((2-ethyl-2H-pyrazolo[3,4-b]pyrazin-6-yl)amino)ethyl)phenyl)-5-methylnicotinamide], the IC50 in test [1] and in test [2] was below 300 nM each time.

Consider `CCn1cc2ncc(N[C@@H](C)c3cccc(NC(=O)c4cnc(OCC5CC5)c(C)c4)c3)nc2n1` [Compound 315, (S)-6-(cyclopropylmethoxy)-N-(3-(1-((2-ethyl-2H-pyrazolo[3,4-b]pyrazin-6-yl)amino)ethyl)phenyl)-5-methylnicotinamide], for which the IC50 in test [1] and in test [2] was below 300 nM in each case.

Regarding `CCOc1ncc(C(=O)Nc2ccc(F)c([C@H](C)Nc3cnc4cn(CC)nc4n3)c2)cc1C` [Compound 316, (S)-6-ethoxy-N-(3-(1-((2-ethyl-2H-pyrazolo[3,4-b]pyrazin-6-yl)amino)ethyl)-4-fluorophenyl)-5-methylnicotinamide], the IC50 in test [1] and in test [2] was below 300 nM in each case.

`CCn1cc2ncc(N[C@@H](C)c3cc(NC(=O)c4cnc(OC)c(C)c4)ccc3F)nc2n1` [Compound 317, (S)-N-(3-(1-((2-ethyl-2H-pyrazolo[3,4-b]pyrazin-6-yl)amino)ethyl)-4-fluorophenyl)-6-methoxy-5-methylnicotinamide]: the IC50 in test [1] and in test [2] was below 300 nM in each case.

`CCn1cc2ncc(N[C@@H](C)c3cc(NC(=O)c4cnc(OCC5CC5)c(C)c4)ccc3F)nc2n1` [Compound 318, (S)-6-(cyclopropylmethoxy)-N-(3-(1-((2-ethyl-2H-pyrazolo[3,4-b]pyrazin-6-yl)amino)ethyl)-4-fluorophenyl)-5-methylnicotinamide]: the concentration for half-maximal inhibition (IC50) in test [1] and in test [2] was below 300 nM each time.

Turning to `CCn1cc2ncc(N[C@@H](C)c3cccc(NC(=O)c4cnc(C(F)F)s4)c3)nc2n1` [Compound 319, (S)-2-(difluoromethyl)-N-(3-(1-((2-ethyl-2H-pyrazolo[3,4-b]pyrazin-6-yl)amino)ethyl)phenyl)thiazole-5-carboxamide], the IC50 in test [1] and in test [2] was below 300 nM throughout.

`CCn1cc2ncc(N[C@@H](C)c3cc(NC(=O)c4ccc(N5CCCC5)nc4)ccc3F)nc2n1` [Compound 320, (S)-N-(3-(1-((2-ethyl-2H-pyrazolo[3,4-b]pyrazin-6-yl)amino)ethyl)-4-fluorophenyl)-6-(pyrrolidin-1-yl)nicotinamide]: the IC50 in test [1] and in test [2] was below 300 nM in each case.

Take `CCn1cc2ncc(N[C@@H](C)c3cccc(NC(=O)c4cnc(C5CC5)c(C)c4)c3)nc2n1` [Compound 321, (S)-6-cyclopropyl-N-(3-(1-((2-ethyl-2H-pyrazolo[3,4-b]pyrazin-6-yl)amino)ethyl)phenyl)-5-methylnicotinamide]: the IC50 in test [1] and in test [2] was below 300 nM in each case.

For `CCn1cc2ncc(N[C@@H](C)c3cc(NC(=O)c4cnc(C5CC5)c(C)c4)ccc3F)nc2n1` [Compound 322, (S)-6-cyclopropyl-N-(3-(1-((2-ethyl-2H-pyrazolo[3,4-b]pyrazin-6-yl)amino)ethyl)-4-fluorophenyl)-5-methylnicotinamide], the IC50 in test [1] and in test [2] was below 300 nM throughout.

`CCn1cc2ncc(N[C@@H](C)c3cccc(NC(=O)c4cnc(N5CCCC5)c(C)c4)c3)nc2n1` [Compound 323, (S)-N-(3-(1-((2-ethyl-2H-pyrazolo[3,4-b]pyrazin-6-yl)amino)ethyl)phenyl)-5-methyl-6-(pyrrolidin-1-yl)nicotinamide]: the IC50 in test [1] and in test [2] was below 300 nM throughout.

Take `CCn1cc2ncc(N[C@@H](C)c3cccc(NC(=O)c4cnc(Br)s4)c3)nc2n1` [Compound 324, (S)-2-bromo-N-(3-(1-((2-ethyl-2H-pyrazolo[3,4-b]pyrazin-6-yl)amino)ethyl)phenyl)thiazole-5-carboxamide]: the half-maximal inhibitory concentration (IC50) is below 300 nM in test [1] and 300 to 1000 nM in test [2].

Turning to `CCn1cc2ncc(N[C@@H](C)c3cccc(NC(=O)c4cnc(OC)s4)c3)nc2n1` [Compound 325, (S)-N-(3-(1-((2-ethyl-2H-pyrazolo[3,4-b]pyrazin-6-yl)amino)ethyl)phenyl)-2-methoxythiazole-5-carboxamide], the IC50 in test [1] and in test [2] was at least 1000 nM each time.

With `CCn1cc2ncc(N[C@@H](C)c3cccc(NC(=O)c4cnc(N5CCCC5)s4)c3)nc2n1` [Compound 326, (S)-N-(3-(1-((2-ethyl-2H-pyrazolo[3,4-b]pyrazin-6-yl)amino)ethyl)phenyl)-2-(pyrrolidin-1-yl)thiazole-5-carboxamide], the IC50 in test [1] and in test [2] was below 300 nM throughout.

On to `CCn1cc2ncc(N[C@@H](C)c3cccc(NC(=O)c4cnc(OC(C)C)c(C)c4)c3)nc2n1` [Compound 327, (S)-N-(3-(1-((2-ethyl-2H-pyrazolo[3,4-b]pyrazin-6-yl)amino)ethyl)phenyl)-6-isopropoxy-5-methylnicotinamide], for which the IC50 in test [1] and in test [2] was below 300 nM each time.
